“Also recorded” adds a separate entry of the source.
Key:
BxPC-3 (αvβ6 (+)) tumors = assay: Blocking study (cold peptide 10 min before radiotracer), biodistribution; format: in vivo, mice; details: 4 h p.i.
Experimental: (§1) Female nu/nu nude mice (6-8 weeks old) were purchased from Charles River Laboratories (Wilmington, MA, USA) and handled according to the UC Davis Institutional Animal Care and Use Committee. BxPC-3 cells (5×10^6) in 100 μl 1:1 GFR-Matrigel: serum-free RPMI were implanted subcutaneously into the left shoulder flank and allowed to grow for approximately 2 weeks (therapy study) and 3 weeks (0.5-1 cm in diameter, for imaging and biodistribution studies). All cells were evaluated with flow cytometry before injection to confirm integrin expression levels. Food and water were available ad libitum.
(§2) For blocking studies, respective non-chelated cold peptide (30 mg/kg, 10 mg/mL (DOTA-5G) and 48 mg/kg, 16 mg/mL (DOTA-ABM-5G) solution in PBS) was injected 10 min. before the formulated radiotracer. At each time point, the mice (n=3/time point/radiotracer) were anesthetized and sacrificed. The tissues were collected, rinsed with PBS, and the radioactivity of each measured with a gamma counter. Radioactivity concentrations were calibrated, decay-corrected, and expressed as percent of injected dose per gram of tissue (% ID/g).

[1] = as above; format: in vivo, mice; details: female, nu/nu nude, mouse, BxPC-3 tumor, iv, total radioactivity; 4 h p.i.; DOTA-ABM-5G 48 mg/kg 10 min before
Experimental: as §1, §2

[2] = tested on: locally advanced, unresectable or metastatic pancreatic adenocarcinoma; assay: Single institution pilot study, 3+3 dose escalation; format: in vivo, human; details: individual patients
Excerpt: Patients first underwent a single microdose of [^68Ga]Ga DOTA-5G PET/CT to assess eligibility for the [^177Lu]Lu DOTA-ABM-5G therapy. Only patients with sufficient lesion uptake (any visualized lesion with SUVmax>2-fold above normal lung or liver) were offered therapy with [^177Lu]Lu DOTA-ABM-5G. The study was designed as a 3+3 dose escalation study with [^177Lu]Lu DOTA-ABM-5G. The treatment regimen consisted of one dose of [^177Lu]Lu DOTA-ABM-5G. The 3+3 design included three patients for the first activity level group (25 mCi) (see Table 4, below). Dose-limiting toxicity (DLT) is defined as any treatment related AE≥grade 3 (G3). In addition, the radiation dose to the kidneys must not exceed 23 Gy and the dose to the bone marrow must not exceed 1.5 Gy. If no DLT occurs within 30 days (after the third patient), 3 patients were then enrolled at the next dose level. Should a patient not be available for complete evaluation of treatment related toxicity within the 30 day DLT window due to non-treatment related issues, the patient was replaced for the purpose of DLT assessment at the same dose level. If DLT attributable to the study treatment is experienced in exactly ⅓ subjects in the first course, 3 more patients (for a total of 6) are treated at that dose level. The dose was escalated if no additional DLT is observed at the expanded dose level (i.e., ⅙ with DLT). Escalation stops as soon as two or more subjects experience DLT attributable to the study drugs. The highest dose (200 mCi limit) with no more than one DLT out of six patients is recommended for Phase II. The radiation dose to the kidneys must not exceed 23 Gy and the dose to the bone marrow must not exceed 1.5 Gy.
Patients deemed eligible based on the [^68Ga]Ga DOTA-5GPET/CT were scheduled to receive one dose of the [^177Lu]Lu DOTA-ABM-5G therapy within 4 weeks (±7 days) of the [^68Ga]Ga DOTA-5G scan. […] For renal protection purpose, a 4-hour co-infusion of an amino acid solution (containing L-lysine [between 18 g and 24 g] and L-arginine [between 18 g and 24 g] was started 30 minutes prior to the infusion of [^177Lu]Lu DOTA-ABM-5G and continued at a constant rate (250 cc/hr) for a total of 4 hours. The patient was monitored for one hour after completion of the amino acid solution infusion. Administration of the amino acid solution before, during and after the [^177Lu]Lu DOTA-ABM-5G therapy was based on experience with Lu-177 DOTATATE to flush the radionuclide through the proximal tubules and decrease the radiation dose to the kidneys. […]
The biodistribution and dosimetry was evaluated using nuclear imaging at 1 day and 7 days post-infusion of [^177Lu]Lu DOTA-ABM-5G. […]

SMILES: CNC(=O)C(CCCCNC(=O)C(CC(=O)O)NC(=O)CCCNC(=O)CCCc1ccc(I)cc1)NC(=O)CN1CCN2CCN3CCN(CC1)CC(=O)[O][177Lu]([O]C(=O)C2)[O]C(=O)C3 (stereo not drawn) [[^177Lu]Lu DOTA-ABM-5G]
- change of BxPC-3 tumor uptake by blocking (Δ) (BxPC-3 (αvβ6 (+)) tumors): −42%
- tissue uptake at 4 h [1]: 4.12 %ID/g
- Current status ([2]; Dose Level 1 (25 mCi)): alive, increase in metastatic; also recorded: alive, stable disease; also recorded: Deceased (patient deteriorated
- Renal function over 90 days ([2]; Dose Level 1 (25 mCi)): no change
- Current status ([2]; Dose Level 2 (50 mCi)): alive, no evidence of liver; also recorded: alive
- Renal function over 90 days ([2]; Dose Level 2 (50 mCi)): no change
